Measurements from PMC9860317, “Regulation of the DEAH/RHA helicase Prp43 by the G-patch factor Pfa1” (Proceedings of the National Academy of Sciences of the …, 2022).

Experiments:
ctPrp43 (Prp43) = target: T1, ctPrp43 (Prp43) (Thermochaetoides thermophila, UniProt G0RY84); assay: coupled ATPase assay, NADH absorption, Michaelis-Menten titration; assay type: biochemical; settings: no Pfa1(gp), no ssRNA
T1 construct: gene CTHT_0005780; expressed in E. coli Rosetta II as N-terminal GST fusion with C-terminal His6 or Strep tag; SEC purified; borders in SI
Source text: coupled ATPase assay, NADH absorption, Michaelis-Menten titration on ctPrp43 (Prp43) | Michaelis–Menten titration and table with ATP turnover numbers (kcat) and dissociation constants (KM)

ctPrp43–Pfa1(gp) complex = target: T2, ctPrp43–Pfa1(gp) complex (Thermochaetoides thermophila, UniProt G0RY84); assay: as above; assay type: biochemical; settings: with Pfa1(gp), no ssRNA
T2 construct: gene CTHT_0005780; Prp43 with C-terminal His6 or Strep tag plus isolated G-patch motif of Pfa1; both from E. coli Rosetta II as GST fusions; borders in SI; with G-patch protein Pfa1 (G-patch motif)
Source text: coupled ATPase assay, NADH absorption, Michaelis-Menten titration on ctPrp43–Pfa1(gp) complex | showing the stimulation of Prp43 ATPase activity by Pfa1(gp) and ssRNA

T2 sequence (G0RY84 entry or part of it, one chain of several): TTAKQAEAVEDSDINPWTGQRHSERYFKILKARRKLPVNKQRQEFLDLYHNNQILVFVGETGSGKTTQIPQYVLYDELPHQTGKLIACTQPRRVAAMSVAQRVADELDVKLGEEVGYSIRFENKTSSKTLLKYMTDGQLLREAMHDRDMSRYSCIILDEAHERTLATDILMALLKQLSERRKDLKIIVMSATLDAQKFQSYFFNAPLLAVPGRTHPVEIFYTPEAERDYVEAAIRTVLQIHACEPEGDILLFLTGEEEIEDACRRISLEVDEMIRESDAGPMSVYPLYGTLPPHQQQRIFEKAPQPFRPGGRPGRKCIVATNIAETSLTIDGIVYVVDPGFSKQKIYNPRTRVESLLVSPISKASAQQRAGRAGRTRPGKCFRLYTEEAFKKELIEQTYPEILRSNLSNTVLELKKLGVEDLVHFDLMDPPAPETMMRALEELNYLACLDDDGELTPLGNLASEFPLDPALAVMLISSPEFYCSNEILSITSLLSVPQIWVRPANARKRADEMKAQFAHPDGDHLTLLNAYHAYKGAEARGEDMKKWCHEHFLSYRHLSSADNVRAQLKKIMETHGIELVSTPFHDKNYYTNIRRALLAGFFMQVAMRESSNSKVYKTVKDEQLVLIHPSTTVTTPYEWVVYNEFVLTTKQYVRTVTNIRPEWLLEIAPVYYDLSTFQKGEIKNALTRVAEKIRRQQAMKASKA
T1 sequence (G0RY84 entry or part of it): as the sequence (G0RY84 entry or part of it, one chain of several) above

Km (ctPrp43 (Prp43)): 29.5 ± 6 µM
Km (ctPrp43–Pfa1(gp) complex): 4.5 ± 0.3 µM
Structure (SMILES): Nc1ncnc2c1ncn2[C@@H]1O[C@H](COP(=O)(O)OP(=O)(O)OP(=O)(O)O)[C@@H](O)[C@H]1O [ATP]
